According to BindingDB's records for doi:10.1016/j.ejmech.2014.09.012 (Shandong University, 2014):

Test: Inhibition of HIV-1 isolate YTA48P HIV-1 gp120

IC50: 0.61 µM
Structure (SMILES): CC1(C)CC(NC(=O)C(=O)Nc2ccc(Cl)cc2)CC(C)(C)N1 [N-(4-chlorophenyl)-N'-(2,2,6,6-tetramethylpiperidin-4-yl)-oxalamide]
